The source of these data is publication PMC10687260, “1,3-Diphenylureido hydroxamate as a promising scaffold for generation of potent antimalarial histone deacetylase inhibitors” (Scientific Reports, 2023).

In data set [1] the test system is HepG2 cells. Put plainly: Cytotoxicity in human HepG2 cells (WST-1). The data set is classed as cell-based. As to conditions: Homo sapiens, HepG2; 48 h, WST-1; read-out: IC50 HepG2. As to the method:
Cytotoxicity in human HepG2 cells.[47] […] Cytotoxic effects of compounds were assessed using the cell proliferation reagent WST-1 (Roche; CELLPRO-RO) in a 96-well plate-based screening assay. HepG2 cells were seeded at 10^4 cells/well (100 μL) in 96-well flat-bottom plates (Sarstedt) the night before the experiment to allow attachment of cells. The next day, two-fold serial dilutions of compounds were prepared in fresh medium in an extra plate, and the medium of cells was replaced by the medium containing the compound dilutions. Non-treated cells (max. proliferation), cells treated with the maximal solvent concentration (DMSO; solvent control), and medium with the maximal compound concentration (native absorbance) used as controls. […] Subsequently, 10 μL WST-1 was added to each well and plates were incubated for additional 4 h under standard conditions. WST-1 is a tetrazolium salt and is metabolised by the mitochondrial succinate-tetrazolium-reductase system of living cells and forms formazan, whose absorbance was measured at 450 nm. Absorbance at 630 nm was assessed to check for protein and precipitation background. Both measurements were acquired via the CLARIOstar (V5.20) and MARS software, manually scaled to 0–100%, and plotted with GraphPad Prism (version 9.5.2 for Windows, GraphPad Software, La Jolla California USA).

The subject of data set [2] is P. falciparum 3D7. Put plainly: Antiplasmodial SYBR Green I proliferation assay, P. falciparum 3D7. Type of data set: cell-based, Plasmodium falciparum. Conditions: Plasmodium falciparum, 3D7, 96 h, 96 h; values in brackets 95% confidence intervals; read-out: IC50 Pf3D7. The source says: Antiplasmodial activity against P. falciparum 3D7 (A, C and E) and P. falciparum Dd2 (B, D, F). […] Curves were plotted using non-linear regression based on means from three independent experiments measured in triplicate. Error bars indicate standard deviation, whose values are provided in the respective table.
Plasmodium falciparum culture and antiplasmodial activity. […] Development, parasitaemia, and morphology of parasites were monitored by light microscopy of thin blood smears stained according to the Romanowsky method (Panótico Rápido staining kit; Laborclin, Pinhais, Paraná, Brazil). […] Fresh 0^+ blood was generously provided by “Hospital Novo Atibaia” (Atibaia, SP, Brazil), and approved by the ethics committee at ICB-USP. The antiplasmodial effect of all compounds was validated against P. falciparum 3D7 strain conducting SYBR Green I (Invitrogen) drug assays as previously reported[30],[46] as a modification of the original procedure. […] Parasite proliferation was measured by the DNA load via fluorescence, using 100 μL of a lysis buffer with SYBR Green I (0.02% v/v) and incubated for 1 h at room temperature in the dark. […] Focal and gain adjustment was performed using the non-treated controls (highest expected fluorescence signal). Data was acquired via the CLARIOstar (V5.20) and MARS software, manually scaled to 0–100%, and plotted using GraphPad Prism (v9.5.2 for Windows, GraphPad Software, La Jolla California USA, www.graphpad.com). Non-treated parasites, the highest solvent concentration on parasites, CQ on parasites, and the highest drug concentration in the medium were used as controls for maximal growth, solvent control, positive biological control, and native drug fluorescence, respectively.

In data set [3] the target is T1, HDAC8 (Homo sapiens, UniProt Q9BY41).
T1 construct: made in house
T1 sequence (Q9BY41 1-377): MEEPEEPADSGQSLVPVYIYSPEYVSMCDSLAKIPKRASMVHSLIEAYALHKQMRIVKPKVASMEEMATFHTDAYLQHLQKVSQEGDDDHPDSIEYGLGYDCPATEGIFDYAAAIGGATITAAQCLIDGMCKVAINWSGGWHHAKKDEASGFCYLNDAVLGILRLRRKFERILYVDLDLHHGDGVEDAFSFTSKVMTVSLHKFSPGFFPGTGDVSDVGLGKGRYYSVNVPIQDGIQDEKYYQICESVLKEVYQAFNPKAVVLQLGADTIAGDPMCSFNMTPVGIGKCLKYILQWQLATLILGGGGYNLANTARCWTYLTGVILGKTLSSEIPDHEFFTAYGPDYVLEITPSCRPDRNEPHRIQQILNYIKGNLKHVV
Nature of the data set: In vitro HDAC enzymatic assay, HDAC8. Type of data set: biochemical. Conditions: mean ± SD. Here is the method:
(§1) In vitro HDAC enzymatic assays. Recombinant human HDAC1 and HDAC6 were purchased from ENZO Life Sciences AG (Lausen, CH) whereas HDAC8 was produced as described before. In vitro testing of the inhibitors in an enzymatic assay was carried out as described in previous publications[32],[33]. For HDAC1 a fluorogenic peptide derived from p53 (Ac-RHKK(Acetyl)-AMC) was used. For HDAC6, the substrate (Abz-SRGGK(thio-TFA)FFRR-NH2) was used as described before.

Data set [4] has as its target T2, human HDAC1 (Homo sapiens, UniProt Q13547).
T2 construct: purchased ENZO Life Sciences AG (Lausen, CH)
Nature of the data set: In vitro HDAC enzymatic assay, HDAC1. Type of data set: biochemical. Conditions: mean ± SD. As to the method: as §1

For data set [5], the target named is T3, human HDAC6 (Homo sapiens, UniProt Q9UBN7).
T3 construct: purchased ENZO Life Sciences AG (Lausen, CH)
T3 sequence (Q9UBN7 1-1215): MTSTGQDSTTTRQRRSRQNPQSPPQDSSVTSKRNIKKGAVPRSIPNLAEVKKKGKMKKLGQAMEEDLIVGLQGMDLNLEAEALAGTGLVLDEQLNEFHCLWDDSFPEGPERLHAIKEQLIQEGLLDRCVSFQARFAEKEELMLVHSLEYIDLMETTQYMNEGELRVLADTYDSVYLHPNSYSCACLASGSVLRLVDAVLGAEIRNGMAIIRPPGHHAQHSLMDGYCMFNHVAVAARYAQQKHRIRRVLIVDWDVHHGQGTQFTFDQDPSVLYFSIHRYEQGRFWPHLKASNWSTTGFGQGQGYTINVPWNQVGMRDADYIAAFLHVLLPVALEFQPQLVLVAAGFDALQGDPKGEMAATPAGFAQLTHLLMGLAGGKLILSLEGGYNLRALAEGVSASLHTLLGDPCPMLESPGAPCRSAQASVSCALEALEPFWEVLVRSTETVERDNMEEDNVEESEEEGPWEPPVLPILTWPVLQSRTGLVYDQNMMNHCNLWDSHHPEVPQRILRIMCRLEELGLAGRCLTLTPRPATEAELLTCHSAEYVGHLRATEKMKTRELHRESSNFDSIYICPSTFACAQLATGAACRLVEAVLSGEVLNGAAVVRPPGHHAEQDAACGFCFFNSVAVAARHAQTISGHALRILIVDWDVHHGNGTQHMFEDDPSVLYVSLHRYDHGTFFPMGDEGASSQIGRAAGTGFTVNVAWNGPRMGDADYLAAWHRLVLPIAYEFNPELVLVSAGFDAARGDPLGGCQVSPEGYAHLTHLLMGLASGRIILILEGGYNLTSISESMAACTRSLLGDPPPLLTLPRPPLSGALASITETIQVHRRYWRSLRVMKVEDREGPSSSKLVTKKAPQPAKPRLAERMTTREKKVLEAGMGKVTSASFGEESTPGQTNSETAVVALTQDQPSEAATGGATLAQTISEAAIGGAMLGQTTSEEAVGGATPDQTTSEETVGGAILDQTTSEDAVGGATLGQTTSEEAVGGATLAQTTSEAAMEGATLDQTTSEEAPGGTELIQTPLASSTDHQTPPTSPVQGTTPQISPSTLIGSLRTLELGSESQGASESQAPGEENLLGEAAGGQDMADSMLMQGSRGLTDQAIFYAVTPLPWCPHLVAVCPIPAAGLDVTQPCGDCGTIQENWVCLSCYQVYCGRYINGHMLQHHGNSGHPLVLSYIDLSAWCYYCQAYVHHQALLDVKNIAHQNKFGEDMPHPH
Put plainly: In vitro HDAC enzymatic assay, HDAC6. As to conditions: for IC50: mean ± SD; for HDAC1/6 SI: ratio HsHDAC1 IC50/HsHDAC6 IC50. Type of data set: biochemical. Here is the method:
as §1

Data set [6] concerns the target T4, CYP450 2D6 (Homo sapiens, UniProt P10635).
T4 construct: 10 μM compound was incubated with human liver microsomes and selective marker substrates; from tissue; host or cells: human liver microsomes
Nature of the data set: CYP450 inhibition in human liver microsomes, 2D6. Type of data set: in vitro ADME. Conditions: Tested concentration: 40 µM.

In data set [7] the target is T5, CYP450 2C9 (Homo sapiens, UniProt P11712).
T5 construct: 10 μM compound was incubated with human liver microsomes and selective marker substrates; from tissue; host or cells: human liver microsomes
Nature of the data set: CYP450 inhibition in human liver microsomes, 2C9. The data set is classed as in vitro ADME. As to conditions: Tested concentration: 40 µM.

A short description of data set [8]: Stability in human hepatic microsomes. The data set is classed as in vitro ADME. The source says: (§2) DMPK evaluation. […].
A short description of data set [9]: Stability in mouse hepatic microsomes. The data set is classed as in vitro ADME.
Description: as §2

T2 sequence (Q13547 whole entry): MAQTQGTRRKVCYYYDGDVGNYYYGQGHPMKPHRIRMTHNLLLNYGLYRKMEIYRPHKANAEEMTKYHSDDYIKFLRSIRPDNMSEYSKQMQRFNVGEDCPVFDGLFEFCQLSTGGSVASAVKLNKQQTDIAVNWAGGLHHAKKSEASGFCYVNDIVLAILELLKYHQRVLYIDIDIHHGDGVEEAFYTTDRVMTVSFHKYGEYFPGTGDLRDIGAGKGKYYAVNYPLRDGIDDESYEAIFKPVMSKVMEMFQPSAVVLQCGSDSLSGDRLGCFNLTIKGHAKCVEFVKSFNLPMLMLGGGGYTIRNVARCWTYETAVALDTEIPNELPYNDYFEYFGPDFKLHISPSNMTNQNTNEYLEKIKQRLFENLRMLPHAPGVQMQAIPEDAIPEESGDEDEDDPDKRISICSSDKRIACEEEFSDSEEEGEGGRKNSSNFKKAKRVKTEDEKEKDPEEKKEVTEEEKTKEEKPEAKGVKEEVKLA
T5 sequence (P11712 whole entry): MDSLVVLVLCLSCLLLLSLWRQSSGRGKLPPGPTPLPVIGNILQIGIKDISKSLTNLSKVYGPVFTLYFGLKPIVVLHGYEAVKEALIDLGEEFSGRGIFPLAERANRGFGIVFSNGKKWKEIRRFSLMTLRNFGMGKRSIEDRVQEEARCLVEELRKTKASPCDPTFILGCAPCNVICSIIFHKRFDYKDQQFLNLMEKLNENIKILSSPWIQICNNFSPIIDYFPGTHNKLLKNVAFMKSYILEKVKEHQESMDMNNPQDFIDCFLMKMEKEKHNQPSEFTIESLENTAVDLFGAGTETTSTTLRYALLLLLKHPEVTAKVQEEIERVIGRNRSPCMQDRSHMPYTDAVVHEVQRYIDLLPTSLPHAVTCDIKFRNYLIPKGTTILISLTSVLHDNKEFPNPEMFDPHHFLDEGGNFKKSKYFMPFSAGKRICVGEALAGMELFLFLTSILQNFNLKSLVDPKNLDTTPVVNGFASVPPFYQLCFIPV
T4 sequence (P10635 whole entry): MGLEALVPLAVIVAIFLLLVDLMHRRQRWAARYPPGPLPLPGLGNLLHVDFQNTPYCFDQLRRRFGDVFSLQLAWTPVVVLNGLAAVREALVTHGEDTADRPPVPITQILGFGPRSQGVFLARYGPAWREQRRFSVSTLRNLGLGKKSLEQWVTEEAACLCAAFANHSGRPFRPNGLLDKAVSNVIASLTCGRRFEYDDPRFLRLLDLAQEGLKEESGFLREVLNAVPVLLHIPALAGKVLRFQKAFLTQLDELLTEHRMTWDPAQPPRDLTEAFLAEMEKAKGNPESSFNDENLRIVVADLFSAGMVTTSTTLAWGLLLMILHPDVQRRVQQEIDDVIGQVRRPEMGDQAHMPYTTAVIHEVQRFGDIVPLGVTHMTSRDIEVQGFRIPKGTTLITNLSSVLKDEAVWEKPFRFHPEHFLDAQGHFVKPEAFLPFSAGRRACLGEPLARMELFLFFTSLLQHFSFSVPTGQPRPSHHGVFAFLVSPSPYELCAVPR

On to `O=C(Nc1ccc(OC(F)(F)F)cc1)Nc1ccc(C(=O)NO)cc1` [8 g, N-hydroxy-4-(3-(4-(trifluoromethoxy)phenyl)ureido)benzamide], for which the concentration for half-maximal inhibition (IC50) in data set [1] was 60.5 µM; in [2], 13900 nM.
For the compound `N/C(=N\O)c1ccc(NC(=O)Nc2ccc(C(=O)NO)cc2)cc1` [8 h, (Z)-N-hydroxy-4-(3-(4-(N'-hydroxycarbamimidoyl)phenyl)ureido)benzamide], the melting point is 97 to 99 °C. The same compound showed an IC50 in data set [3] of 164 ± 9.1 nM. 8.3 ± 0.481 µM corresponded to half-maximal inhibition in data set [4] (IC50). In data set [5], the half-maximal inhibitory concentration (IC50) stood at 21.3 ± 0.5 nM and the “HDAC1/6 SI” value was determined as 390. In data set [1], the IC50 was above 200 µM. Moreover, in data set [2], the IC50 stood at 390 nM.
For the compound `N#Cc1ccc(NC(=O)Nc2ccc(C(=O)NO)cc2)cc1` [8 k, 4-(3-(4-cyanophenyl)ureido)-N-hydroxybenzamide], the melting point is 220 to 222 °C. Further, the IC50 in data set [3] worked out at 51.5 ± 6.1 nM. Moreover, in data set [4], the IC50 turned out to be 3.75 ± 0.563 µM. Besides, in data set [5], the half-maximal inhibitory concentration (IC50) was determined as 11.6 ± 0.2 nM and the “HDAC1/6 SI” value came out at 323. Further, the half-inhibitory concentration (IC50) in [1] was above 200 µM. Moreover, in data set [2], the IC50 worked out at 260 nM.
On to `O=C(/C=C/c1ccc(NC(=O)Nc2ccc(Cl)cc2)cc1)NO` [Compound 6b, (E)-3-(4-(3-(4-chlorophenyl)ureido)phenyl)-N-hydroxyacrylamide], for which the IC50 in data set [5] worked out at 14.3 ± 2.2 nM; in data set [1], 28.8 µM; in [2], 7880 nM.
`O=C(/C=C/c1ccc(NC(=O)Nc2ccc([N+](=O)[O-])cc2)cc1)NO` [Compound 6d, (E)-N-hydroxy-3-(4-(3-(4-nitrophenyl)ureido)phenyl)acrylamide]: the melting point lay in the range of 167 to 168 °C. Further, in data set [3], it took 99.1 ± 10.9 nM to reach half-maximal inhibition (IC50). In data set [4], this compound yielded an IC50 of 1.11 ± 0.0563 µM. In addition, in data set [5], the concentration for half-maximal inhibition (IC50) is 9 ± 0.7 nM and the “HDAC1/6 SI” value is 124. Further, the IC50 in data set [1] was 10.4 µM. Also, the 50% inhibitory concentration (IC50) in data set [2] came to 1260 nM.
Consider `O=C(CCc1ccc(NC(=O)Nc2ccc(Cl)cc2)cc1)NO` [Compound 7b, 3-(4-(3-(4-chlorophenyl)ureido)phenyl)-N-hydroxypropanamide], for which the melting point is 286 °C (dec.). Further, the IC50 in [3] was determined as 568 ± 40.5 nM. In data set [4], this compound yielded a concentration for half-maximal inhibition (IC50) of 4.78 ± 0.446 µM. Besides, in data set [5], the concentration for half-maximal inhibition (IC50) turned out to be 185 ± 21.6 nM and the “HDAC1/6 SI” value came out at 26. Also, the IC50 in [1] is above 50 µM. In data set [2], the 50% inhibitory concentration (IC50) amounted to 7040 nM.
Regarding `Cc1ccc(NC(=O)Nc2ccc(C(=O)NO)cc2)cc1` [Compound 8e, N-hydroxy-4-(3-(p-tolyl)ureido)benzamide], the half-inhibitory concentration (IC50) in [1] is above 200 µM; in [2], 340 nM.
For `O=C(Nc1ccc(F)cc1)Nc1ccc(C(=O)NO)cc1` [Compound 8f., 4-(3-(4-fluorophenyl)ureido)-N-hydroxybenzamide], the values for the IC50 in data set [1] and in data set [2] were 116 µM and 400 nM, respectively.
As for `O=C(Nc1ccc(C(=O)NO)cc1)Nc1ccc(C(F)(F)F)cc1` [Compound 8i, N-hydroxy-4-(3-(4-(trifluoromethyl)phenyl)ureido)benzamide], the IC50 is 25.1 µM in data set [1] and 1300 nM in data set [2].
In the same order, the values of `Nc1ccc(NC(=O)Nc2ccc(C(=O)NO)cc2)cc1` [Compound 8j, 4-(3-(4-aminophenyl)ureido)-N-hydroxybenzamide] are above 200 µM and 350 nM.
In the same order, the values of `Nc1ccc(C(=O)NO)cc1` [Compound 15, 4-amino-N-hydroxybenzamide] are above 200 µM and 6300 nM.
For the compound `Cc1nc2c([nH]1)c(=O)n(C)c(=O)n2Cc1ccco1` [Furafylline, reference compound], in data set [6], the “CYP450% inhibition 2D6” value is “* (Inhibition < 10%)”. Further, the “CYP450% inhibition 2C9” value in [7] is on record as “* (Inhibition < 10%)”.
For `CCN(CC)CCNC(=O)c1c(C)[nH]c(/C=C2\C(=O)Nc3ccc(F)cc32)c1C` [Sunitinib, reference compound], the half-life at 1 µM in [8] (1 mg/mL hepatic microsomes, 1 µM compound, read-out: Half-life t1/2 Human) came out at 22.3 min; in data set [9] (1 mg/mL hepatic microsomes, 1 µM compound, read-out: Half-life t1/2 Mouse), 9.1 min. Further, the microsomal CLint at 1 µM in [8] (read-out: Intrinsic clearance Clint Human) turned out to be 31 µL/min/mg; in data set [9] (read-out: Intrinsic clearance Clint Mouse), 76 µL/min/mg.
